Experimental data published in Sander's compilation of Henry's law constants.

How the values were obtained:
[1] = Henry solubility constant Hcp at 298.15 K (mol/(m3 Pa))
[2] = Henry solubility constant Hcp at 296 K (mol/(m3 Pa))
[3] = Henry solubility constant Hcp at 310 K (mol/(m3 Pa))
[4] = Henry solubility constant Hcp at 293 K (mol/(m3 Pa))
[5] = Henry solubility constant Hcp at 303 K (mol/(m3 Pa))
[6] = Henry solubility constant Hcp at 295 K (mol/(m3 Pa))
[7] = reference: Bissonette et al. (1990)
[8] = reference: Cooling et al. (1992)
[9] = reference: Gossett et al. (1985)
[10] = reference: Khalfaoui and Newsham (1994b)
[11] = reference: Lincoff and Gossett (1984)
[12] = reference: Ramachandran et al. (1996)
[13] = reference: Robbins et al. (1993)
[14] = reference: Turner et al. (1996)
[15] = reference: Warner et al. (1980)
[16] = reference: Chiang et al. (1998)
[17] = reference: Pearson and McConnell (1975)
[18] = reference: Yurteri et al. (1987)
[19] = reference: Meynier et al. (2003)
[20] = reference: Kieckbusch and King (1979b)
[21] = reference: de Wolf and Lieder (1998)
[22] = reference: Hartkopf and Karger (1973)
[23] = reference: Fendinger et al. (1989)
[24] = reference: McIntosh and Heffron (2000)
[25] = reference: Richon et al. (1985)

[N-]=[N+]=O [dinitrogen monoxide]
Henry solubility constant Hcp ([1]; reference: Carius (1855)): 0.00025
Henry solubility constant Hcp ([1]; reference: Gabel and Schultz (1973)): 0.00025
Henry solubility constant Hcp ([1]; reference: Geffcken (1904)): 0.00024
Henry solubility constant Hcp ([1]; reference: Joosten and Danckwerts (1972)): 0.00024
Henry solubility constant Hcp ([1]; reference: Kunerth (1922)): 0.00024
Henry solubility constant Hcp ([1]; reference: Orcutt and Seevers (1937a)): 0.00024
Henry solubility constant Hcp ([1]; reference: Roth (1897)): 0.00023
Henry solubility constant Hcp ([1]; reference: Saidman et al. (1966)): 0.00024
Henry solubility constant Hcp ([1]; reference: Siebeck (1909)): 0.00024
Henry solubility constant Hcp ([1]; reference: Weiss and Price (1980)): 0.00024
Henry solubility constant Hcp at 296 K ([2]; reference: Nunn (1958)): 0.00022
Henry solubility constant Hcp at 310 K ([3]; reference: Bachofen and Farhi (1971)): 0.00019
Henry solubility constant Hcp at 310 K ([3]; reference: Sy and Hasbrouck (1964)): 0.00014

ClC=C(Cl)Cl [trichloroethene]
Henry solubility constant Hcp ([1]; reference: Bierwagen and Keller (2001)): 0.0012
Henry solubility constant Hcp [1, 7]: 0.001
Henry solubility constant Hcp ([1]; reference: Chen et al. (2012)): 0.001
Henry solubility constant Hcp [1, 8]: 0.00097
Henry solubility constant Hcp ([1]; reference: Ervin et al. (1980)): 0.00074
Henry solubility constant Hcp ([1]; reference: Garbarini and Lion (1985)): 0.001
Henry solubility constant Hcp ([1]; reference: Gossett (1987)): 0.001
Henry solubility constant Hcp [1, 9]: 0.0011
Henry solubility constant Hcp ([1]; reference: Görgényi et al. (2002)): 0.00095
Henry solubility constant Hcp ([1]; reference: Heron et al. (1998)): 0.00093
Henry solubility constant Hcp [1, 10]: 0.00095
Henry solubility constant Hcp ([1]; reference: Knauss et al. (2000)): 0.0011
Henry solubility constant Hcp [1, 11]: 0.00097
Henry solubility constant Hcp ([1]; reference: Munz and Roberts (1987)): 0.00096
Henry solubility constant Hcp ([1]; reference: Nielsen et al. (1994)): 0.0013
Henry solubility constant Hcp ([1]; reference: Park et al. (1997)): 0.00088
Henry solubility constant Hcp ([1]; reference: Peng and Wan (1997)): 0.0011
Henry solubility constant Hcp ([1]; reference: Peng and Wan (1998)): 0.0014
Henry solubility constant Hcp [1, 12]: 0.00083
Henry solubility constant Hcp [1, 13]: 0.00094
Henry solubility constant Hcp ([1]; reference: Schoene and Steinhanses (1985)): 0.0009
Henry solubility constant Hcp ([1]; reference: Shimotori and Arnold (2003)): 0.001
Henry solubility constant Hcp ([1]; reference: Tancrède and Yanagisawa (1990)): 0.0013
Henry solubility constant Hcp [1, 14]: 0.00085
Henry solubility constant Hcp ([1]; reference: Vane and Giroux (2000)): 0.0011
Henry solubility constant Hcp [1, 15]: 0.00084
Henry solubility constant Hcp at 296 K ([2]; reference: David et al. (2000)): 0.001
Henry solubility constant Hcp at 293 K [4, 16]: 0.0011
Henry solubility constant Hcp at 293 K [4, 17]: 0.0011
Henry solubility constant Hcp at 293 K [4, 18]: 0.00094

CCCCCOC(C)=O [pentyl ethanoate]
Henry solubility constant Hcp at 303 K [5, 19]: 0.13
Henry solubility constant Hcp [1, 20]: 0.028

[CH3][Hg][Cl] [chloromethylmercury]
Henry solubility constant Hcp at 295 K ([6]; reference: Talmi and Mesmer (1975)): 15
Henry solubility constant Hcp ([1]; reference: Iverfeldt and Lindqvist (1982)): 22

CCC/C=C/C=O [(E)-2-hexenal]
Henry solubility constant Hcp at 303 K [5, 19]: 0.9
Henry solubility constant Hcp ([1]; reference: Buttery et al. (1971)): 0.2

Clc1ccccc1 [chlorobenzene]
Henry solubility constant Hcp at 295 K [6, 21]: 0.0034
Henry solubility constant Hcp [1, 7]: 0.0024
Henry solubility constant Hcp [1, 8]: 0.003
Henry solubility constant Hcp ([1]; reference: Ervin et al. (1980)): 0.0029
Henry solubility constant Hcp ([1]; reference: Ettre et al. (1993)): 0.0031
Henry solubility constant Hcp [1, 22]: 0.0028
Henry solubility constant Hcp [1, 10]: 0.003
Henry solubility constant Hcp ([1]; reference: Lau et al. (2010)): 0.0017
Henry solubility constant Hcp ([1]; reference: Lei et al. (2004)): 0.0015
Henry solubility constant Hcp ([1]; reference: Li et al. (2008)): 0.0024
Henry solubility constant Hcp ([1]; reference: Mackay et al. (1979)): 0.0026
Henry solubility constant Hcp ([1]; reference: Park et al. (1997)): 0.0019
Henry solubility constant Hcp [1, 12]: 0.0029
Henry solubility constant Hcp [1, 15]: 0.0025
Henry solubility constant Hcp at 293 K [4, 18]: 0.0031

CCCN(CCC)c1c([N+](=O)[O-])cc(C(F)(F)F)cc1[N+](=O)[O-] [trifluralin]
Henry solubility constant Hcp [1, 23]: 0.17
Henry solubility constant Hcp at 296 K [2, 23]: 0.19
Henry solubility constant Hcp at 293 K ([4]; reference: Rice et al. (1997b)): 0.095

Clc1cccc(Cl)c1 [1,3-dichlorobenzene]
Henry solubility constant Hcp at 295 K [6, 21]: 0.0037
Henry solubility constant Hcp ([1]; reference: Li et al. (2008)): 0.0029
Henry solubility constant Hcp [1, 15]: 0.0038

CCC(=O)CC [3-pentanone]
Henry solubility constant Hcp at 303 K ([5]; reference: Saylor et al. (1938)): 9.7e-05
Henry solubility constant Hcp ([1]; reference: Hovorka et al. (2019)): 0.11
Henry solubility constant Hcp ([1]; reference: Ji and Evans (2007)): 0.16

Cc1ccccc1C [1,2-dimethylbenzene]
Henry solubility constant Hcp [1, 7]: 0.0021
Henry solubility constant Hcp ([1]; reference: Li et al. (2008)): 0.0023
Henry solubility constant Hcp [1, 13]: 0.002
Henry solubility constant Hcp ([1]; reference: Sieg et al. (2009)): 0.002
Henry solubility constant Hcp [1, 14]: 0.0014
Henry solubility constant Hcp ([1]; reference: Wasik and Tsang (1970)): 0.0029
Henry solubility constant Hcp at 296 K ([2]; reference: Anderson (1992)): 0.0017
Henry solubility constant Hcp at 310 K [3, 24]: 0.00096
Henry solubility constant Hcp at 293 K [4, 18]: 0.0023

C=CC(C)(C)O [2-methyl-3-buten-2-ol]
Henry solubility constant Hcp at 303 K ([5]; reference: Iraci et al. (1999)): 0.64

[HH] [hydrogen]
Henry solubility constant Hcp at 303 K ([5]; reference: Ruetschi and Amlie (1966)): 7.5e-06
Henry solubility constant Hcp ([1]; reference: Bohr and Bock (1891)): 7.5e-06
Henry solubility constant Hcp ([1]; reference: Braun (1900)): 7.7e-06
Henry solubility constant Hcp ([1]; reference: Bunsen (1855a)): 8.5e-06
Henry solubility constant Hcp ([1]; reference: Crozier and Yamamoto (1974)): 7.7e-06
Henry solubility constant Hcp ([1]; reference: Geffcken (1904)): 7.8e-06
Henry solubility constant Hcp ([1]; reference: Gordon et al. (1977)): 7.7e-06
Henry solubility constant Hcp ([1]; reference: Morrison and Billett (1952)): 7.8e-06
Henry solubility constant Hcp ([1]; reference: Schmidt (1979)): 7.8e-06
Henry solubility constant Hcp ([1]; reference: Timofejew (1890)): 7.8e-06
Henry solubility constant Hcp ([1]; reference: Winkler (1891a)): 7.7e-06
Henry solubility constant Hcp at 310 K ([3]; reference: Longo et al. (1970)): 7.2e-06
Henry solubility constant Hcp at 310 K ([3]; reference: Power and Stegall (1970)): 7.2e-06

Brc1ccccc1 [bromobenzene]
Henry solubility constant Hcp at 295 K [6, 21]: 0.005
Henry solubility constant Hcp ([1]; reference: Lau et al. (2010)): 0.0039

CC(=O)OCCC(C)C [3-methylbutyl ethanoate]
Henry solubility constant Hcp at 303 K [5, 19]: 0.088
Henry solubility constant Hcp ([1]; reference: Ammari and Schroen (2019)): 0.022

CCCCC(=O)OCC [ethyl pentanoate]
Henry solubility constant Hcp at 303 K [5, 19]: 0.14

CCOC=O [ethyl methanoate]
Henry solubility constant Hcp at 303 K [5, 25]: 0.023
Henry solubility constant Hcp [1, 22]: 0.0019
Henry solubility constant Hcp ([1]; reference: Kutsuna et al. (2005)): 0.034
Henry solubility constant Hcp ([1]; reference: Wittig et al. (2001)): 0.04

CCCOC(C)=O [propyl ethanoate]
Henry solubility constant Hcp at 303 K [5, 25]: 0.031
Henry solubility constant Hcp ([1]; reference: Fenclová et al. (2014)): 0.045
Henry solubility constant Hcp [1, 20]: 0.045

CCCCC(CC)COC(=O)CCCCC(=O)OCC(CC)CCCC (stereo not given) [di-(2-ethylhexyl)-adipate]
Henry solubility constant Hcp at 295 K ([6]; reference: Felder et al. (1986)): 23

CC[N+](=O)[O-] [nitroethane]
Henry solubility constant Hcp at 303 K ([5]; reference: Friant and Suffet (1979)): 0.14
Henry solubility constant Hcp ([1]; reference: Beneš and Dohnal (1999)): 0.22

ClCCl [dichloromethane]
Henry solubility constant Hcp ([1]; reference: Chen et al. (2012)): 0.0035
Henry solubility constant Hcp ([1]; reference: Gossett (1987)): 0.0046
Henry solubility constant Hcp [1, 9]: 0.0038
Henry solubility constant Hcp [1, 22]: 0.0042
Henry solubility constant Hcp [1, 11]: 0.0034
Henry solubility constant Hcp ([1]; reference: Lutsyk et al. (2005)): 0.0043
Henry solubility constant Hcp ([1]; reference: Park et al. (1997)): 0.0043
Henry solubility constant Hcp [1, 15]: 0.0031
Henry solubility constant Hcp at 296 K ([2]; reference: David et al. (2000)): 0.0039
Henry solubility constant Hcp at 310 K [3, 24]: 0.0034
Henry solubility constant Hcp at 293 K [4, 16]: 0.0034
Henry solubility constant Hcp at 293 K [4, 17]: 0.0033
Henry solubility constant Hcp at 293 K ([4]; reference: Yu (1992)): 0.0044
Henry solubility constant Hcp at 293 K [4, 18]: 0.0052
